Source: patent publication US5614555A, “Amidinophenol derivatives” (Ono Pharmaceutical Co., Ltd., priority 1992, dated 1997)
Counter-ions that a name gives are not always drawn.

Assays:
[1] = molecular target: T1, PLA2 (derived from hog pancreas) (Sus scrofa, UniProt P00592); test: Inhibitory activity on PLA2; format: biochemical; conditions: pH7.5, 10PY-PC substrate, fluorescence Ex=345 nm, Em=396 nm
T1 construct: from tissue; host or cells: hog pancreas
Procedure: A reaction solution including 50 mM tris-HCl buffer (pH7.5, 874 μl; containing 100 mM sodium chloride, 1 mM EDTA), 1M calcium chloride (6 μl), 1% bovine serum albumin (10 μl) and 2.5 mM 10PY-PC (10 μl), was prepared. To the solution were added a test compound in various concentration or water (50 μl), and a solution of 10 mU/ml PLA2 (derived from hog pancreas)(50 μl). The appearance of fluorescence was measured (Ex=345 nm, Em=396 nm). Percentage (%) of the strength of fluorescence in the presence of a test compound was calculated when the strength of that in the absence thereof was regarded as 100%, and therefrom IC50 value was calculated.
10PY-PC represents 3'-palmitoyl-2-(1 -pyrenedecanoyl)-L-α-phosphatidycholine, […]

[2] = molecular target: T2, trypsin (derived from bovine pancreas) (Bos taurus, UniProt P00760); test: Inhibitory activity on trypsin; format: biochemical; conditions: pH8.0, preincubated one minute at 30° C., BAPNA substrate, 30 min, absorbance at 405 nm
T2 construct: from tissue; host or cells: bovine pancreas
T2 sequence (P00760 24-246): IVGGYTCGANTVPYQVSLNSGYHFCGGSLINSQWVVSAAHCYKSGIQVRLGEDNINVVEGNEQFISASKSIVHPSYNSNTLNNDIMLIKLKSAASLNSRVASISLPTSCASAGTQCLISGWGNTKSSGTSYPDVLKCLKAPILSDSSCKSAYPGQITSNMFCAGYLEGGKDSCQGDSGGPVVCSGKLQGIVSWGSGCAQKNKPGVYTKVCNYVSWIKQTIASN
Procedure: To a mixture of a 0.2M HEPES.sodium hydroxide buffer solution (pH8.0, 100 μl ) and distilled water (640 μl), were added a test compound in various concentration or water (10 μl), and a solution of 80 mU/ml trypsin (derived from bovine pancreas) (50 μl) and then the mixture was preincubated for one minute at 30° C. To the solution thus obtained was added 2.5 mM BAPNA (200 μl) and the mixture was incubated for 30 min. The absorbance at 405 nm was measured. Percentage (%) of the absorbance in the presence of a test compound was calculated when the absorbance in the absence thereof was regarded as 100%, and therefrom IC50 value was calculated.
HEPES represents 4-(2-hydroxyethyl)-1-piperazineethanesulfonic acid, and
BAPNA represents a-N-benzoyl-DL-arginine-p-nitroanilide hydrochloride.

[3] = test system: PLA2; conditions: Japan. J. Pharmacol., 52, 23-34, 1990; cited from earlier work

T1 sequence (P00592 23-146): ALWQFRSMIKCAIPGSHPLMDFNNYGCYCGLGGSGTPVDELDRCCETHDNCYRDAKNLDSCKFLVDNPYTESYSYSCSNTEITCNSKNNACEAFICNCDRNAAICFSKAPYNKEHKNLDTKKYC

SMILES | IC50 [1] [nM] | IC50 [2] [nM] | inhibitory activity on PLA2 (in words) [3]
CCOC(=O)CC[C@H](NC(=O)/C(C)=C/c1ccc(C(=O)Oc2ccc(C(=N)N)cc2)cc1)C(=O)OCC [1(d), p-(p-amidino-phenoxycarbonyl)-α-methylcinnamicacid N-[1-(S),3-bis-(ethoxycarbonyl)]-propylamidehydrochloride] | 63000 | 130 | –
N=C(N)c1ccc(OC(=O)c2ccc(C(=O)N3CCN(Cc4ccccc4)CC3)cc2)cc1 [1(t), p-(p-amidino-phenoxycarbonyl)-benzoic acid N'-phenylmethyl-piperazinylamidedihydrochloride] | 24000 | 220 | –
N=C(N)c1ccc(OC(=O)c2ccc(C(=O)N3CCC[C@@H]3C(=O)OCc3ccccc3)cc2)cc1 [2(f), p-(p-amidinophenoxycarbonyl)benzoic acid-N-(2-(R)-benzyloxycarbonyl)pyrrolidinylamideacetic acid] | 32000 | 140 | –
C=CCN(CC(=O)O)C(=O)/C(C)=C/c1ccc(C(=O)Oc2ccc(C(=N)N)cc2)cc1 [Example 4, p-(p-Amidinophenoxycarbonyl)-α-methylcinnamic acid N-carboxymethyl-N-allylamide methanesulfonate] | – | 100 | –
CN(C)C(=O)COC(=O)Cc1ccc(OC(=O)c2ccc(NC(=N)N)cc2)cc1 [camostat mesylate] | – | – | having an inhibitory activity on PLA2
N=C(N)Nc1ccc(C(=O)Oc2ccc3cc(C(=N)N)ccc3c2)cc1 [nafamostat mesilate] | – | – | having an inhibitory activity on PLA2

The next lines start with results.

IC50 [1] [nM] | IC50 [2] [nM] | SMILES | inhibitory activity on PLA2 (in words) [3]
5300 | 140 | CCOC(=O)CN(C(=O)/C(C)=C/c1ccc(C(=O)Oc2ccc(C(=N)N)cc2)cc1)c1ccc(F)cc1 [1(g), p-(p-amidino-phenoxycarbonyl)-α-methylcinnamicacid N-(p-fluoro-phenyl)-N-ethoxy-carbonylmethyl-amidemethanesulfonate] | –
28000 | 130 | C=CCN(CC(=O)OCC)C(=O)/C(C)=C/c1ccc(C(=O)Oc2ccc(C(=N)N)cc2)cc1 [1(i), p-(p-amidino-phenoxycarbonyl)-α-methylcinnamicacid N-allyl-N-ethoxycarbonylmethylamideacetate] | –
3100 | 220 | CCOC(=O)CN(C(=O)/C=C(\C)c1ccc(C(=O)Oc2ccc(C(=N)N)cc2)cc1)c1ccccc1 [1(k), p-(p-amidino-phenoxycarbonyl)-β-methylcinnamicacid N-phenyl-N-ethoxycarbonyl-methylamidehydrochloride] | –
– | 150 | CCOC(=O)CN(C(=O)c1ccc(C(=O)Oc2ccc(C(=N)N)cc2C(=O)OC)cc1)c1ccccc1 [1(p), p-(p-amidino-o-methoxycarbonyl-phenoxycarbonyl)-benzoic acid N-phenyl-N-ethoxy-carbonylmethyl-amide acetate] | –
4800 | 140 | CCOC(=O)CN(Cc1ccccc1)C(=O)/C(C)=C/c1ccc(C(=O)Oc2ccc(C(=N)N)cc2)cc1 [Example 1, p-(p-Amidinophenoxycarbonyl)-α-methylcinnamic acid N-ethoxycarbonylmethyl-N-phenylmethylamide hydrochloride] | –
15000 | 140 | CCOC(=O)CN(C(=O)/C=C/c1ccc(C(=O)Oc2ccc(C(=N)N)cc2)cc1)c1ccccc1 [Example 2(a), p-(p-amidinophenoxycarbonyl)cinnamic acid-N-phenyl-N-ethoxycarbonylmethyl amidehydrochloride] | –
